≈ marks a conversion by molar mass, not a printed value.
Test: Saturation solubility of taxol
Type: physicochemical
Conditions: pH 7.4, aqueous buffer

- solubility: 0.32 µg/mL (≈ 0.375 µM)
SMILES: CC(=O)O[C@H]1C(=O)[C@@]2(C)[C@H]([C@H](OC(=O)c3ccccc3)[C@]3(O)C[C@H](OC(=O)[C@H](O)[C@@H](NC(=O)c4ccccc4)c4ccccc4)C(C)=C1C3(C)C)[C@]1(OC(C)=O)CO[C@@H]1C[C@@H]2O [taxol]

— patent EP0923943A1, “MICELLAR AQUEOUS COMPOSITION AND METHOD FOR SOLUBILIZING HYDROPHOBIC DRUG” (TAISHO PHARMACEUTICAL CO. LTD, priority 1996, dated 1997)
